Data: patent EP3426036B1, “CROP ENHANCEMENT” (priority 2016, dated 2017)

Legend:
[1] = system: detached wheat (Triticum aestivum var. Arina) leaves; experiment: Detached leaf transpiration and photosynthesis analysis; type: in vivo, Triticum aestivum L.
Experimental: Winter wheat (Triticum aestivum L.) of the variety Arina was used for the detached leaf transpiration assay. Plants were grown under optimum conditions in growth chambers until BBCH 12. The seedlings were dark-adapted for one hour; the second leaf was cut under water and directly placed into a 1.5 mL test-tube filled with 1 mL of compound I solution. The solution was prepared by dissolving compound I in dimethyl sulfoxide (DMSO) and diluting in water to the final concentrations of 3, 10, 50 and 100 mg L^-1. After weighing the initial weight of the leaf-tube-system, the leaves were placed in growth chambers at 25°C, 60% relative humidity and a light intensity of 150 µmol m^-2 s^-1 at 14 hours photoperiod. Transpiration was quantified by measuring the weight of the leaf-tube-system after 6 and 24 hours. Tubes without leaves solely filled with water were used to correct for evaporation. At 6 hours, the operating quantum efficiency of photosystem II (φPSII), which is a proxy of the photosynthetic activity, was monitored under growth conditions from the middle of the leaf using a PAM-2500 fluorometer (Walz, Effeltrich, Germany). The experimental design was a randomized complete block design with five replications for each treatment; one experimental unit was one leaf per test-tube. Statistical analysis (ANOVA) was done with Agstat 1.6 / ACSAP 4.29.

[2] = system: Durum wheat; experiment: Crop enhancement effect on wheat under drought conditions in the field (Example 1c); type: in vivo; conditions: for Protein content / Grain Yield / TGW / No. of grains per ear: 75.0 g a.i/ha at BBCH GS 39; for Grain Yield / TGW: adjusted to 10% standard moisture; for No. of grains per ear: average of 10 ears per plot
Experimental: Durum wheat (plot size 24m^2) was treated with a single application at BBCH GS 39 (flag leaf stage) with the compound of formula I at a rate of 75.0 g a.i/ha. The plants were split into non-irrigated (only rainfed) and irrigated with 50% of evapotranspiration compensation. Untreated check plants were also included in both water supply conditions. These water supply conditions were maintained during the reproductive stages of plant growth (BBCH 55-73). The trial was carried out with six replicates.
At the end of the trial, a 12m^2 plot was harvested from each of four replicates for each water supply condition. […]
In addition to the above factors, the Normalised Difference Vegetation Index (NDVI) was also assessed. This is an estimate of the photosynthetically absorbed radiation over the crop surfaces and allows an estimate of the Leaf Area Index in order to track plant growth and vigour. The NDVI was measured several times during the trial with two handheld crop devices with active light source optical sensors: GreenSeeker HCS-100 (7 measurements) and RapidSCAN CS-45 (5 measurements).

[3] = system: Spring wheat; experiment: Crop enhancement effect on wheat under drought conditions in the field (Example 1d); type: in vivo; conditions: non-irrigated; for Grain Yield / TGW: adjusted to 10% standard moisture; for No. of grains per ear: average of 20 ears per plot
Experimental: Spring wheat (plot size 30m^2) was treated with a single application at BBCH GS 41 (early boot stage) or 49 (first awns visible) with the compound of formula I at a rate of 75.0 g a.i/ha. […] This water supply condition was maintained during the reproductive stages of plant growth (BBCH 55-89). The trial was carried out with six replicates. At the end of the trial, a 20m^2 plot was harvested from each of five replicates. […]

[4] = system: Soybean plants; experiment: Crop enhancement effect on soybean under drought conditions, then optimal conditions (Example 2b); type: in vivo; conditions: for Dry weight of pods: 21 days drought then 25 days optimal conditions
Experimental: Soybean plants were grown in pots. The plants were treated at R1 (33 days after sewing) or three days before R3 (40 days after sewing) with the compound of formula I at 0.75 l/ha. An untreated control plant was also included. After treatment, the plants were subjected to drought conditions for 21 days before being allowed to grow under optimal conditions for a further 25 days. Eight replicates of the control and each treatment were harvested for analysis of yield and chlorophyll content. […]

[5] = 75.0 g a.i/ha applied at BBCH 41
[6] = 75.0 g a.i/ha applied at BBCH 49
[7] = 0.75 l/ha @ R1, 3 days after application
[8] = 0.75 l/ha @ R1, 7 days after application
[9] = 0.75 l/ha @ R1, 10 days after application
[10] = 0.75 l/ha @ R1, 14 days after application
[11] = 0.75 l/ha @ R1, 21 days after application
[12] = 0.75 l/ha @ R1, 24 days after application
[13] = 0.75 l/ha @ R1, 28 days after application
[14] = 0.75 l/ha @ R1, 31 days after application
[15] = 0.75 l/ha @ R1, 36 days after application
[16] = 0.75 l/ha @ R1, 41 days after application
[17] = 0.75 l/ha @ R1, 43 days after application
[18] = 0.75 l/ha @ R1, -1 days after application
[19] = 0.75 l/ha @ R3 - 3 days, 0 days after application
[20] = 0.75 l/ha @ R3 - 3 days, 3 days after application
[21] = 0.75 l/ha @ R3 - 3 days, 7 days after application
[22] = 0.75 l/ha @ R3 - 3 days, 14 days after application
[23] = 0.75 l/ha @ R3 - 3 days, 17 days after application
[24] = 0.75 l/ha @ R3 - 3 days, 21 days after application
[25] = 0.75 l/ha @ R3 - 3 days, 24 days after application
[26] = 0.75 l/ha @ R3 - 3 days, 29 days after application
[27] = 0.75 l/ha @ R3 - 3 days, 34 days after application
[28] = 0.75 l/ha @ R3 - 3 days, 36 days after application
[29] = 0.75 l/ha @ R3 - 3 days, -3 days after application
[30] = 0.75 l/ha @ R3 - 3 days, -7 days after application

SMILES: Cn1cc(C(=O)Nc2cccc3c2C2CCC3C2=C(Cl)Cl)c(C(F)F)n1 (stereo not shown) [Compound I, benzovindiflupyr]
- leaf transpiration ([1]; 3, 10, 50 and 100 mg L^-1, 0 to 24 hours): significantly decreased leaf transpiration in a dose-dependent manner
- leaf transpiration ([1]; 3 and 10 mg L^-1, first 6 hours): decreased only little
- leaf transpiration ([1]; 50 and 100 mg L^-1, within 6 hours of treatment): clearly visible
- operating quantum efficiency of photosystem II (φPSII) ([1]; at 6 hours, 3 to 100 mg L^-1): did not show an impact
- Protein content ([2]; 50% ET compensation): 15.45%
- Grain Yield ([2]; 50% ET compensation): 60.60 dT/Ha
- TGW ([2]; 50% ET compensation): 45.78 g
- No. of grains per ear ([2]; 50% ET compensation): 42.08
- Normalised Difference Vegetation Index (NDVI) ([2]; GreenSeeker HCS-100, BBCH 69(1), 50% ET compensation): 0.820
- Normalised Difference Vegetation Index (NDVI) ([2]; GreenSeeker HCS-100, BBCH 69(1), non-irrigated): 0.788
- Normalised Difference Vegetation Index (NDVI) ([2]; GreenSeeker HCS-100, BBCH 69(2), 50% ET compensation): 0.787
- Normalised Difference Vegetation Index (NDVI) ([2]; GreenSeeker HCS-100, BBCH 69(2), non-irrigated): 0.747
- Normalised Difference Vegetation Index (NDVI) ([2]; GreenSeeker HCS-100, BBCH 73, 50% ET compensation): 0.750
- Normalised Difference Vegetation Index (NDVI) ([2]; GreenSeeker HCS-100, BBCH 73, non-irrigated): 0.672
- Normalised Difference Vegetation Index (NDVI) ([2]; GreenSeeker HCS-100, BBCH 75-83, 50% ET compensation): 0.705
- Normalised Difference Vegetation Index (NDVI) ([2]; GreenSeeker HCS-100, BBCH 75-83, non-irrigated): 0.557
- Normalised Difference Vegetation Index (NDVI) ([2]; GreenSeeker HCS-100, BBCH 83-85, 50% ET compensation): 0.673
- Normalised Difference Vegetation Index (NDVI) ([2]; GreenSeeker HCS-100, BBCH 83-85, non-irrigated): 0.468
- Normalised Difference Vegetation Index (NDVI) ([2]; GreenSeeker HCS-100, BBCH 85, 50% ET compensation): 0.572
- Normalised Difference Vegetation Index (NDVI) ([2]; GreenSeeker HCS-100, BBCH 85, non-irrigated): 0.375
- Normalised Difference Vegetation Index (NDVI) ([2]; GreenSeeker HCS-100, BBCH 87, 50% ET compensation): 0.464
- Normalised Difference Vegetation Index (NDVI) ([2]; GreenSeeker HCS-100, BBCH 87, non-irrigated): 0.185
- Normalised Difference Vegetation Index (NDVI) ([2]; RapidSCAN CS-45, BBCH 69, 50% ET compensation): 0.663
- Normalised Difference Vegetation Index (NDVI) ([2]; RapidSCAN CS-45, BBCH 69, non-irrigated): 0.592
- Normalised Difference Vegetation Index (NDVI) ([2]; RapidSCAN CS-45, BBCH 73, 50% ET compensation): 0.657
- Normalised Difference Vegetation Index (NDVI) ([2]; RapidSCAN CS-45, BBCH 73, non-irrigated): 0.625
- Normalised Difference Vegetation Index (NDVI) ([2]; RapidSCAN CS-45, BBCH 83-85, 50% ET compensation): 0.572
- Normalised Difference Vegetation Index (NDVI) ([2]; RapidSCAN CS-45, BBCH 83-85, non-irrigated): 0.393
- Normalised Difference Vegetation Index (NDVI) ([2]; RapidSCAN CS-45, BBCH 85, 50% ET compensation): 0.538
- Normalised Difference Vegetation Index (NDVI) ([2]; RapidSCAN CS-45, BBCH 85, non-irrigated): 0.320
- Normalised Difference Vegetation Index (NDVI) ([2]; RapidSCAN CS-45, BBCH 87, 50% ET compensation): 0.204
- Normalised Difference Vegetation Index (NDVI) ([2]; RapidSCAN CS-45, BBCH 87, non-irrigated): 0.083
- Protein content ([2]; non-irrigated): 12.68%
- Grain Yield ([2]; non-irrigated): 57.73 dT/Ha
- TGW ([2]; non-irrigated): 51.16 g
- No. of grains per ear ([2]; non-irrigated): 37.88
- Hectolitre weight [3, 5]: 85.68 kg/Hl
- Grain Yield [3, 5]: 48.00 dT/Ha
- TGW [3, 5]: 41.56 g
- No. of grains per ear [3, 5]: 50.80
- Hectolitre weight [3, 6]: 84.96 kg/Hl
- Grain Yield [3, 6]: 42.30 dT/Ha
- TGW [3, 6]: 41.46 g
- No. of grains per ear [3, 6]: 46.70
- Average plant colour (increase/decrease (%) compared to negative control treatment) [4, 7]: 1.3%
- Digital biomass (increase/decrease (%) compared to negative control treatment) [4, 7]: 2.6%
- Average plant colour (increase/decrease (%) compared to negative control treatment) [4, 8]: 0.4%
- Digital biomass (increase/decrease (%) compared to negative control treatment) [4, 8]: 0.4%
- Average plant colour (increase/decrease (%) compared to negative control treatment) [4, 9]: -0.4%
- Digital biomass (increase/decrease (%) compared to negative control treatment) [4, 9]: 1.9%
- Average plant colour (increase/decrease (%) compared to negative control treatment) [4, 10]: -0.6%
- Digital biomass (increase/decrease (%) compared to negative control treatment) [4, 10]: 2.4%
- Average plant colour (increase/decrease (%) compared to negative control treatment) [4, 11]: -0.3%
- Digital biomass (increase/decrease (%) compared to negative control treatment) [4, 11]: -1.5%
- Dry weight of pods ([4]; 0.75 l/ha @ R1): 106.3 % of control
- Average plant colour (increase/decrease (%) compared to negative control treatment) [4, 12]: -0.3%
- Digital biomass (increase/decrease (%) compared to negative control treatment) [4, 12]: -1.1%
- Average plant colour (increase/decrease (%) compared to negative control treatment) [4, 13]: -1.6%
- Digital biomass (increase/decrease (%) compared to negative control treatment) [4, 13]: 1.2%
- Average plant colour (increase/decrease (%) compared to negative control treatment) [4, 14]: -3.0%
- Digital biomass (increase/decrease (%) compared to negative control treatment) [4, 14]: -3.7%
- Average plant colour (increase/decrease (%) compared to negative control treatment) [4, 15]: -0.5%
- Digital biomass (increase/decrease (%) compared to negative control treatment) [4, 15]: -6.3%
- Average plant colour (increase/decrease (%) compared to negative control treatment) [4, 16]: -1.4%
- Digital biomass (increase/decrease (%) compared to negative control treatment) [4, 16]: -9.2%
- Average plant colour (increase/decrease (%) compared to negative control treatment) [4, 17]: -2.0%
- Digital biomass (increase/decrease (%) compared to negative control treatment) [4, 17]: -6.9%
- Average plant colour (increase/decrease (%) compared to negative control treatment) [4, 18]: 0.3%
- Digital biomass (increase/decrease (%) compared to negative control treatment) [4, 18]: 1.5%
- Average plant colour (increase/decrease (%) compared to negative control treatment) [4, 19]: 0.4%
- Digital biomass (increase/decrease (%) compared to negative control treatment) [4, 19]: 3.6%
- Average plant colour (increase/decrease (%) compared to negative control treatment) [4, 20]: 1.3%
- Digital biomass (increase/decrease (%) compared to negative control treatment) [4, 20]: 4.3%
- Average plant colour (increase/decrease (%) compared to negative control treatment) [4, 21]: 0.4%
- Digital biomass (increase/decrease (%) compared to negative control treatment) [4, 21]: 2.7%
- Average plant colour (increase/decrease (%) compared to negative control treatment) [4, 22]: -0.2%
- Digital biomass (increase/decrease (%) compared to negative control treatment) [4, 22]: 1.5%
- Average plant colour (increase/decrease (%) compared to negative control treatment) [4, 23]: 1.4%
- Digital biomass (increase/decrease (%) compared to negative control treatment) [4, 23]: 4.4%
- Average plant colour (increase/decrease (%) compared to negative control treatment) [4, 24]: 0.2%
- Digital biomass (increase/decrease (%) compared to negative control treatment) [4, 24]: 4.4%
- Dry weight of pods ([4]; 0.75 l/ha @ R3 - 3 days): 105.8 % of control
- Average plant colour (increase/decrease (%) compared to negative control treatment) [4, 25]: 1.3%
- Digital biomass (increase/decrease (%) compared to negative control treatment) [4, 25]: -2.4%
- Average plant colour (increase/decrease (%) compared to negative control treatment) [4, 26]: -0.5%
- Digital biomass (increase/decrease (%) compared to negative control treatment) [4, 26]: -0.9%
- Average plant colour (increase/decrease (%) compared to negative control treatment) [4, 27]: -2.3%
- Digital biomass (increase/decrease (%) compared to negative control treatment) [4, 27]: -3.3%
- Average plant colour (increase/decrease (%) compared to negative control treatment) [4, 28]: -3.9%
- Digital biomass (increase/decrease (%) compared to negative control treatment) [4, 28]: 1.6%
- Average plant colour (increase/decrease (%) compared to negative control treatment) [4, 29]: 0.4%
- Digital biomass (increase/decrease (%) compared to negative control treatment) [4, 29]: 2.2%
- Average plant colour (increase/decrease (%) compared to negative control treatment) [4, 30]: 0.1%
- Digital biomass (increase/decrease (%) compared to negative control treatment) [4, 30]: -1.2%
